Experiments:
Format in all cases: functional
Mus musculus [1] = test: Percentage inhibition of jumping was measured at 10 mg/kg dose.
Mus musculus [2] = test: Total jumps of mice was measured at 10 mg/kg dose.
Mus musculus [3] = test: Mean jumps/mouse was measured at 10 mg/kg dose.
Mus musculus [4] = test: Mean jumps/mouse was measured at 3 mg/kg dose.
Mus musculus [5] = test: Percentage inhibition of jumping was measured at 3 mg/kg dose.
Mus musculus [6] = test: Total jumps of mice was measured at 3 mg/kg dose.

CSCC1CC2c3cccc4[nH]nc(c34)CC2N(C)C1 (stereo unspecified)
inhibition in vivo at 10 mg/kg (Mus musculus [1]): 49.6%
Activity (Mus musculus [2]): 6096
Activity (Mus musculus [3]): 508
Activity (Mus musculus [4]): 426
inhibition in vivo at 3 mg/kg (Mus musculus [5]): 47.9%
Activity (Mus musculus [6]): 5113

Source: ChEMBL document CHEMBL1121431, “Preparation and biological evaluation of 2-azaergolines” (1980)
